Results: patent US10301295B2, “Herbicidal compounds” (Syngenta Participations AG, priority 2014, dated 2019)
Like-named read-outs stand apart in the source and are kept apart here.

What was measured:
Assay type in all cases: in vivo
[1] = tested on: Echinochloa crus-galli (ECHCG); experiment: Glasshouse assay for herbicidal activity, pre-/post-emergence (percentage phytotoxicity); settings: Echinochloa crus-galli, Rate 250 g/ha, 100%=total damage, 0%=no damage
Procedure, shortened: (§1)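 Pre- and post-emergence treatments were applied to potted plants at 1 and ~12 days after sowing respectively. Percentage phytotoxicity was judged visually 20 or 15 days later.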

Avena fatua (AVEFA) = experiment: as above; settings: Avena fatua, Rate 250 g/ha, 100%=total damage, 0%=no damage
Procedure, shortened: as §1

[2] = tested on: Alopecurus myosuroides (ALOMY); experiment: as above; settings: Alopecurus myosuroides, Rate 250 g/ha, 100%=total damage, 0%=no damage
Procedure, shortened: as §1

Lolium perenne (LOLPE) = experiment: as above; settings: Lolium perenne, Rate 250 g/ha, 100%=total damage, 0%=no damage
Procedure, shortened: as §1

wheat = experiment: Post-emergence herbicidal activity against cereal crops (wheat) +/- safener, crop selectivity; settings: 100%=total damage to plant, 0%=no damage; for Post-emergence herbicidal activity against wheat (percentage phytotoxicity), +CQC: 250 g/ha, plus safener cloquintocet-mexyl (CQC) applied at 50 g/ha; for percent phytotoxicity (crop damage) to wheat at 250 g/ha: Triticum aestivum, 360 h, without safener, read-out: Post-emergence herbicidal activity against wheat (percentage phytotoxicity), Wheat - CQC
Procedure: Seeds of a variety of monocotyledonous and dicotyledonous test plants are sown in standard soil in pots. The plants are cultivated for one day (for pre-emergence) or for about 12 days (for post-emergence) under controlled conditions in a glasshouse (warm climate species at 24/18° C., cool climate species at 20/16° C., both at day/night; 16 hours light; 65% humidity). The test plants are then grown on, in a glasshouse (greenhouse) under controlled conditions (warm climate species at 24/18° C., cool climate species at 20/16° C., both at day/night; 16 hours light; 65% humidity) and are watered twice daily. 15 days after application of the test herbicide (15DAA) (for post-emergence), and 20 days after application of the test herbicide (20DAA) (for pre-emergence), the test plants are evaluated visually, and an assessed percentage phytotoxicity score is given for each herbicidal application on each plant species (with 100%=total damage to plant; 0%=no damage to plant).

[3] = post-emergence, 360 h, post-emergence, visual assessment 15 DAA, read-out: Post-emergence herbicidal activity (percentage phytotoxicity), ECHCG POST
[4] = pre-emergence, 480 h, pre-emergence, visual assessment 20 DAA, read-out: Pre-emergence herbicidal activity (percentage phytotoxicity), ECHCG PRE
[5] = post-emergence, 360 h, post-emergence, visual assessment 15 DAA, read-out: Post-emergence herbicidal activity (percentage phytotoxicity), AVEFA POST
[6] = pre-emergence, 480 h, pre-emergence, visual assessment 20 DAA, read-out: Pre-emergence herbicidal activity (percentage phytotoxicity), AVEFA PRE
[7] = 360 h, post-emergence, visual assessment 15 DAA, read-out: Post-emergence herbicidal activity (percentage phytotoxicity), ALOMY POST
[8] = 480 h, pre-emergence, visual assessment 20 DAA, read-out: Pre-emergence herbicidal activity (percentage phytotoxicity), ALOMY PRE
[9] = post-emergence, 360 h, post-emergence, visual assessment 15 DAA, read-out: Post-emergence herbicidal activity (percentage phytotoxicity), LOLPE POST
[10] = pre-emergence, 480 h, pre-emergence, visual assessment 20 DAA, read-out: Pre-emergence herbicidal activity (percentage phytotoxicity), LOLPE PRE

| Structure (SMILES) | pest or weed control at 250 g/ha [1, 3] | pest or weed control at 250 g/ha [1, 4] | pest or weed control at 250 g/ha (Avena fatua (AVEFA); [5]) | pest or weed control at 250 g/ha (Avena fatua (AVEFA); [6]) | pest or weed control at 250 g/ha [2, 7] | pest or weed control at 250 g/ha [2, 8] | pest or weed control at 250 g/ha (Lolium perenne (LOLPE); [9]) | pest or weed control at 250 g/ha (Lolium perenne (LOLPE); [10]) | Post-emergence herbicidal activity against wheat (percentage phytotoxicity), +CQC (wheat) | percent phytotoxicity (crop damage) to wheat at 250 g/ha (wheat) |
| --- | --- | --- | --- | --- | --- | --- | --- | --- | --- | --- |
| Cc1cc(C)c(C2C(=O)CC(CCNC(=O)C3=NOC(C)(C)C3)C2=O)c(C)c1 (centres unmarked) [Compound A40, N-[2-[2,4-dioxo-3-(2,4,6-trimethylphenyl)cyclopentyl]ethyl]-5,5-dimethyl-4H-isoxazole-3-carboxamide] | 100% | 100% | 100% | 100% | 100% | 90% | 90% | 100% | 80% | 90% |
| CON=C(C)C(=O)NCCC1CC(=O)C(c2c(C)cc(C)cc2C)C1=O (centres unmarked) [Compound A39] | 50% | 30% | 80% | 50% | 80% | 80% | 100% | 90% | 10% | 60% |
| Cc1cc(C)c(C2C(=O)CC(CCNS(=O)(=O)c3ccc(OC(F)(F)F)cc3)C2=O)c(C)c1 (centres unmarked) [Compound A85] | 40% | 70% | 80% | 80% | 60% | 70% | 50% | 80% | 10% | 20% |
| Cc1cc(C)c(C2C(=O)CC(CCNC(=O)N(C)Cc3ccccc3)C2=O)c(C)c1 (centres unmarked) [Compound A10] | 90% | 0% | 80% | 0% | 80% | 0% | 90% | 0% | 20% | 70% |
| Cc1cc(C)c(C2C(=O)CC(CCNS(=O)(=O)c3ccc(F)cc3)C2=O)c(C)c1 (centres unmarked) [Compound A73] | 30% | 30% | 60% | 0% | 40% | 70% | 60% | 70% | 10% | 0% |
| Cc1cc(C)c(C2C(=O)CC(CCNC(=S)NC(=O)c3ccccc3)C2=O)c(C)c1 (centres unmarked) [Compound A91] | 0% | 70% | 10% | 60% | 80% | 60% | 70% | 70% | 70% | 70% |
| Cc1cc(C)c(C2C(=O)CC(CCNC(=O)NC(=O)c3ccc(C(F)(F)F)cc3F)C2=O)c(C)c1 (centres unmarked) [Compound A70] | 90% | 100% | 90% | 40% | 20% | 50% | 100% | 60% | 80% | 80% |
| Cc1cc(C)c(C2C(=O)CC(CCNC(=O)Nc3ccccc3)C2=O)c(C)c1 (centres unmarked) [Compound A9, 1-[2-[2,4-dioxo-3-(2,4,6-trimethylphenyl)cyclopentyl]ethyl]-3-phenyl-urea] | 80% | 80% | 80% | 60% | 30% | 60% | 90% | 80% | 10% | 40% |
| Cc1cc(C)c(C2C(=O)CC(CCNC(=O)Nc3ccccc3F)C2=O)c(C)c1 (centres unmarked) [Compound A45] | 40% | 80% | 0% | 0% | 20% | 0% | 80% | 90% | 0% | 0% |
| Cc1cc(C)c(C2C(=O)CC(CCNC(=O)NC(=O)c3ccc(Cl)cc3)C2=O)c(C)c1 (centres unmarked) [Compound A51] | 90% | 90% | 80% | 30% | 90% | 70% | 90% | 60% | 80% | 80% |
| Cc1cc(C)c(C2C(=O)CC(CCNC(=O)NC(=O)c3ccc(F)cc3F)C2=O)c(C)c1 (centres unmarked) [Compound A53] | 100% | 100% | 100% | 70% | 90% | 80% | 100% | 90% | 80% | 90% |
| Cc1cc(C)c(C2C(=O)CC(CCNC(=O)N(C)C)C2=O)c(C)c1 (centres unmarked) [Compound A31] | 70% | 90% | 90% | 70% | 90% | 80% | 90% | 100% | 10% | 70% |
| CC(=NOCc1ccccc1)C(=O)NCCC1CC(=O)C(c2c(C)cc(C)cc2C)C1=O (centres unmarked) [Compound A44] | 70% | 0% | 0% | 0% | 0% | 0% | 0% | 10% | 10% | 30% |
| Cc1cc(C)c(C2C(=O)CC(CCNC(=O)NC(C)(C)C)C2=O)c(C)c1 (centres unmarked) [Compound A5] | 100% | 90% | 90% | 80% | 80% | 100% | 90% | 90% | 20% | 50% |
